The text below walks through data of patent US7902181B2, “Compounds 010” (AstraZeneca AB, priority 2007, dated 2011).

Where a name gives a salt, the structure may show the parent alone.

Recombinant Human (rh) DPP1, sequence (P53634 25-463): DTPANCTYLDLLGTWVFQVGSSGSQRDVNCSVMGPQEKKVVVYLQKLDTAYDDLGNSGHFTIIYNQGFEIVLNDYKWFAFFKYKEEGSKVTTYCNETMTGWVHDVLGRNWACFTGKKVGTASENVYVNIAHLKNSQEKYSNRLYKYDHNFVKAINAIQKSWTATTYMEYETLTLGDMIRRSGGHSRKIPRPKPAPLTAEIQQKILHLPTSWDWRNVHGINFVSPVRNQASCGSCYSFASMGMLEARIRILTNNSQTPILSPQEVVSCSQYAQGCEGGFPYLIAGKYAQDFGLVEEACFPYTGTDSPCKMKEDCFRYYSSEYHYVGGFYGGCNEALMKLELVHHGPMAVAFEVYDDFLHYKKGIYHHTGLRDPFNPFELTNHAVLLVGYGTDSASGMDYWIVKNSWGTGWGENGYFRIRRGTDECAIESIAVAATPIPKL

The experiment concerns the target Recombinant Human (rh) DPP1 (Homo sapiens, UniProt P53634). The experiment is described as follows: Fluorescence Assay for Recombinant Human (rh) DPP1. The format is biochemical. Particulars: rhDPP1; substrate H-Gly-Arg-AMC; pH5.0; 30 min pre-incubation, 60 min reaction at 22° C.; highest concentration 10 μM; read-out: DPP1 activity, pIC50 (converted). The essentials:
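Release of AMC from 100 μM H-Gly-Arg-AMC by rhDPP1 ([…]) in 25 mM piperazine pH 5.0, 50 mM NaCl, 5 mM DTT, 0.01% Triton X-100, 1% DMSO, 22 °C. Inhibitors (12-point half-log, top 10 μM) preincubated 30 min, reaction 60 min, fluorescence at 350/450 nm; pIC50 from 4-parameter logistic fit.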
With `CC(=O)NCc1cccc(-c2ccc(C[C@@H](C#N)NC(=O)[C@@H]3CCCCN3)cc2)c1` [Example 90, (S)-N-((S)-2-(3′-(Acetamidomethyl)biphenyl-4-yl)-1-cyanoethyl)-piperidine-2-carboxamide Trifluoroacetate], the IC50 was 126 nM.
To `N#C[C@H](Cc1ccc(-c2ccc(F)cc2OCc2ccccc2)cc1)NC(=O)[C@@H]1CCCCN1` [Example 30, (2S)-N-[(1S)-1-Cyano-2-[4-(4-fluoro-2-phenylmethoxy-phenyl)phenyl]ethyl]pipe-ridine-2-carboxamide trifluoroacetate] belongs 100 nM.
To `N#C[C@H](Cc1ccc(-c2cccc(CN)c2)cc1)NC(=O)[C@@H]1CCCCN1` [Example 7, (S)-N-((S)-2-(3′-(Aminomethyl)biphenyl-4-yl)-1-cyanoethyl)piperidine-2-carboxamide Ditrifluoroacetate] belongs 100 nM; to `Cc1cc(O)ccc1-c1ccc(C[C@@H](C#N)NC(=O)[C@@H]2CCCCN2)cc1` [Example 11, (S)-N-((S)-1-Cyano-2-(4′-hydroxy-2′-methylbiphenyl-4-yl)ethyl)piperidine-2-carboxamide Trifluoroacetate], 316 nM.
To `Cn1c(=O)sc2ccc(-c3ccc(C[C@@H](C#N)NC(=O)[C@@H]4CCCCN4)cc3)cc21` [Example 66, (S)-N-((S)-1-Cyano-2-(4-(3-methyl-2-oxo-2,3-dihydrobenzo[d]thiazol-5-yl)phenyl)ethyl) piperidine-2-carboxamide] belongs 2 nM; to `COc1cccc(-c2ccc(C[C@@H](C#N)NC(=O)[C@@H]3CCCCN3)cc2)c1` [Example 15, (2S)-N-[(1S)-1-Cyano-2-(3′-methoxybiphenyl-4-yl)ethyl]piperidine-2-carboxamide Trifluoroacetate], 100 nM.
As to `CS(=O)(=O)c1cc(-c2ccc(C[C@@H](C#N)NC(=O)[C@@H]3CCCCN3)cc2)ccc1CC#N` [Example 101, (S)-N-((S)-1-Cyano-2-(4′-(cyanomethyl)-3′-(methylsulfonyl)biphenyl-4-yl)ethyl)-piperidine-2-carboxamide Trifluoroacetate], the IC50 is 39.8 nM.
`N#C[C@H](Cc1ccc(-c2ccccc2)cc1)NC(=O)[C@@H]1CCCCN1` [Example 16, Piperidine-2-carboxylic acid (2-biphenyl-4-yl-1-cyano-ethyl)-amide]: the IC50 is 126 nM.
For the compound `CN(C)C(=O)c1cc(Cl)cc(-c2ccc(CC(C#N)NC(=O)[C@@H]3CCCCN3)cn2)c1` (mixture of isomers) [Example 81, (S)-N-((S)-2-(6-(3-Chloro-5-(dimethylcarbamoyl)phenyl)pyridin-3-yl)-1-cyanoethyl)piperidine-2-carboxamide Trifluoroacetate], the IC50 was 794 nM.
Regarding `N#C[C@H](Cc1ccc(-c2cccc(C(=O)O)c2)cc1)NC(=O)[C@@H]1CCCCN1` [Example 12, 4′-((S)-2-Cyano-2-((S)-piperidine-2-carboxamido)ethyl)biphenyl-3-carboxylic Acid Trifluoroacetate], the IC50 was 398 nM.
To `C[S+]([O-])c1cc(-c2ccc(C[C@@H](C#N)NC(=O)[C@@H]3CCCCN3)cc2)ccc1C(N)=O` (stereo partly drawn) [Example 61, (2S)-N-((1S)-2-(4′-Carbamoyl-3′-(methylsulfinyl)biphenyl-4-yl)-1-cyanoethyl)piperidine-2-carboxamide] belongs 39.8 nM; to `CN(C)c1ncc(-c2ccc(C[C@@H](C#N)NC(=O)[C@@H]3CCCCN3)cc2)cn1` [Example 37, (2S)-N-[(1S)-1-Cyano-2-[4-(2-dimethylaminopyrimidin-5-yl)phenyl]ethyl]piperidine-2-carboxamide trifluoroacetate], 316 nM.
For `N#C[C@H](Cc1ccc(-c2ccc3c(c2)SCC(=O)N3)cc1)NC(=O)[C@@H]1CCCCN1` [Example 68, (S)-N-((S)-1-Cyano-2-(4-(3-oxo-3,4-dihydro-2H-benzo[b][1,4]thia-zin-7-yl)phenyl)ethyl) piperidine-2-carboxamide] the value was 15.8 nM; for `CCCS(=O)(=O)c1cc(-c2ccc(C[C@@H](C#N)NC(=O)[C@@H]3CCCCN3)cc2)ccc1C#N` [Example 60, (S)-N-((S)-1-Cyano-2-(4′-cyano-3′-(propylsulfonyl)biphenyl-4-yl)ethyl)piperidine-2-carboxamide], 20 nM; for `N#C[C@H](Cc1ccc(-c2cnoc2)cc1)NC(=O)[C@@H]1CCCCN1` [Example 21, (2S)-N-[(1S)-1-Cyano-2-(4-1,2-oxazol-4-ylphenyl)ethyl]piperidine-2-carboxamide trifluoroacetate], 50.1 nM.
To `N#C[C@H](Cc1ccc(-c2cccc(C(N)=O)c2)cc1)NC(=O)[C@@H]1CCCCN1` [Example 34, (2S)-N-[(1S)-2-[4-(3-Carbamoylphenyl)phenyl]-1-cyano-ethyl]piperidine-2-carboxamide trifluoroacetate] belongs 200 nM.
Regarding `N#C[C@H](Cc1ccc(-c2ccc3c(c2)CNS3(=O)=O)cc1)NC(=O)[C@@H]1CCCCN1` [Example 67, (2S)-N-{(1S)-1-cyano-2-[4-(1,1-dioxido-2,3-dihydro-1,2-benzisothiazol-5-yl)phenyl]ethyl} piperidine-2-carboxamide], the IC50 is 10 nM.
For `COc1c(F)cc(F)cc1-c1ccc(C[C@@H](C#N)NC(=O)[C@@H]2CCCCN2)cc1` [Example 44, (2S)-N-[(1S)-1-Cyano-2-[4-(3,5-difluoro-2-methoxy-phenyl)phenyl]ethyl]pipe-ridine-2-carboxamide trifluoroacetate] the value was 631 nM; for `Cn1c(=O)sc2cc(-c3ccc(C[C@@H](C#N)NC(=O)[C@@H]4CCCCN4)cc3)ccc21` [Example 98, (S)-N-((S)-1-Cyano-2-(4-(3-methyl-2-oxo-2,3-dihydrobenzo[d]thiazol-6-yl)phenyl)ethyl)piperidine-2-carboxamide], 50.1 nM.
For `N#C[C@H](Cc1ccc(-c2ccccc2O)nc1)NC(=O)[C@@H]1CCCCN1` [Example 79, (S)-N-((S)-1-Cyano-2-(6-(2-hydroxyphenyl)pyridin-3-yl)ethyl)piperidine-2-carboxamide] the value was 316 nM; for `N#C[C@H](Cc1ccc(-c2ccc3c(c2)OCO3)cc1)NC(=O)[C@@H]1CCCCN1` [Example 28, (2S)-N-[(1S)-2-(4-Benzo[1,3]dioxol-5-ylphenyl)-1-cyano-ethyl]piperidine-2-carboxamide trifluoroacetate], 100 nM; for `N#C[C@H](Cc1ccc(-c2ccc3c(c2)OCCO3)cc1)NC(=O)[C@@H]1CCCCN1` [Example 35, (2S)-N-[(1S)-1-Cyano-2-[4-(2,5-dioxabicyclo[4.4.0]deca-7,9,11-trien-8-yl)phenyl]ethyl]piperidine-2-carboxamide trifluoroacetate], 251 nM.
Turning to `N#C[C@H](Cc1ccc(-c2cccnc2)cc1)NC(=O)[C@@H]1CCCCN1` [Example 10, (S)-N-((S)-1-Cyano-2-(4-(pyridin-3-yl)phenyl)ethyl)piperidine-2-carboxamide Trifluoroacetate], the IC50 is 251 nM.
